Laboratory results taken from patent US9649332B2, “Poly (β-hydroxy short-medium chain fatty acid)” (EARTHUS, INC., priority 2003, dated 2017).

System: Cell line HT-29 derived from colon tumor
Assay: Growth inhibition against colon tumor cell line (MTT method)
Type: cell-based
Settings: 72 hours, control 0.337 ± 0.055
Procedure: Cell line HT-29 derived from colon tumor was inoculated into McCoy's SA medium supplemented with 10% fetal calf serum comprising penicillin 50 U/ml, streptomycin 50 μg/ml and HEPES 10 mM on 96-well cell culture plate (7,500 cells/well). The cells were pre-incubated in an atmosphere of 95% air and 5% carbon dioxide at 37° C. for 24 hours. […] The plate was incubated further 72 hours. The cell number in the each well was determined by the MTT method based on the difference of the optical density.

C[C@H](CC(=O)O)OC(=O)C[C@@H](C)O [R-dimer, dimer of R(−)-β-hydroxybutyric acid]
cell number by MTT method (optical density) (0.1 mM): 0.288 ± 0.019
cell number by MTT method (optical density) (0.5 mM): 0.251 ± 0.029
cell number by MTT method (optical density) (1 mM): 0.248 ± 0.029
cell number by MTT method (optical density) (2 mM): 0.237 ± 0.019

C[C@@H](O)CC(=O)O [R-β-hydroxy-butyric acid, R(−)-β-hydroxy-butyric acid]
cell number by MTT method (optical density) (0.1 mM): 0.271 ± 0.028
cell number by MTT method (optical density) (0.5 mM): 0.264 ± 0.019
cell number by MTT method (optical density) (1 mM): 0.272 ± 0.015
cell number by MTT method (optical density) (2 mM): 0.284 ± 0.023

C[C@H](O)CC(=O)O [S-β-hydroxy-butyric acid, S(+)-β-hydroxybutyric acid]
cell number by MTT method (optical density) (0.1 mM): 0.257 ± 0.035
cell number by MTT method (optical density) (0.5 mM): 0.255 ± 0.013
cell number by MTT method (optical density) (1 mM): 0.281 ± 0.017
cell number by MTT method (optical density) (2 mM): 0.293 ± 0.022

CCCC(=O)O [butyric acid, reference compound]
cell number by MTT method (optical density) (0.1 mM): 0.234 ± 0.012
cell number by MTT method (optical density) (0.5 mM): 0.243 ± 0.009
cell number by MTT method (optical density) (1 mM): 0.250 ± 0.010
cell number by MTT method (optical density) (2 mM): 0.200 ± 0.009
